Article PMC2064103 (The Journal of Cell Biology, 2007)

Assays:
Assay in all cases: radiolabelled glycopeptide formation, ConA Sepharose capture, gamma counting
T. vaginalis OST = format: biochemical, Trichomonas vaginalis; conditions: 10 μM acceptor tripeptide; Mg2+, Mn2+, pH 7.4; non-cooperative
E. histolytica OST = format: biochemical, Entamoeba histolytica; conditions: 15 μM acceptor tripeptide; Mg2+, Mn2+, pH 7.4; non-cooperative
T. cruzi OST = format: biochemical, Trypanosoma cruzi; conditions: 10 μM acceptor tripeptide; Mg2+, Mn2+, pH 7.4; non-cooperative

M5GN2-PP-Dol
Km (T. vaginalis OST): 0.22 µM | Km (E. histolytica OST): 0.72 µM

M9GN2-PP-Dol
Km (T. cruzi OST): 0.49 µM
